From patent publication US9757596B2, “Composition comprising at least 3 different diols” (AMBRIA DERMATOLOGY AB, priority 2004, dated 2017)

Assays:
Type in all cases: cell-based
[1] = test system: Staphylococcus aureus number 515×6352; assay: Test for bacteriostatic effect (MIC) in agar medium, S. aureus; conditions: combinations: % of each diol; for MIC S. aureaus 10^3: 10^3 cells/ml; for MIC S. aureaus 10^3 / MIC S. aureaus 10^5: DST agar, 37° C., analysed after 1 and 2 days; for MIC S. aureaus 10^5: 10^5 cells/ml; for concentration that completely inhibited the growth of S. aureus: cell concentration not specified
Method: (§1) Staphylococcus aureus number 515×6352 and Candida albicans H 29 were obtained from the Collection in the Department of Microbiology, Sahigrenska University Hospital, Gothenburg, Sweden. The isolates were maintained on blood agar at 37° C. M. sympodialis CBS 7222 and M. globosa CBS 7966
(§2) Test for bacteriostatic effect (MIC=minimal inhitory concentration).
(§3) Each of the diols and their combination (1:1:1 volume/volume) was diluted directly with the test culture medium, Diagnostic Sensitivity test agar (DST) (Oxoid, UK) to obtain concentrations, in the test medium, of 2, 3, 4, 6, 9, and 12% volume percent of the respective diol and of 2, 3, and 4% of the respective diol in the combination.
S. aureus cells were added to the agar medium in concentrations of 10^3 and 10^5 cells/ml while C. albicans cells were added in a concentration of 10^6 cells/ml and M. sympodialis and M. globosa in a concentration of 10^7 cells/ml. Plates were incubated at 37° C. and analysed after 1 and 2 days. Each experiment was repeated. […] The MIC's for propane-1,2-diol, pentane-1,5-diol, 2-methylpentane-2,4-diol and the combination of these 3 diols are shown in the table 1. […]

Candida albicans H 29 = assay: Test for bacteriostatic effect (MIC) in agar medium, C. albicans; conditions: 10^6 cells/ml, DST agar, 37° C., analysed after 1 and 2 days; combinations: % of each diol
Method: as §1, §2, §3
S. aureus cells were added to the agar medium in concentrations of 10^3 and 10^5 cells/ml while C. albicans cells were added in a concentration of 10^6 cells/ml and M. sympodialis and M. globosa in a concentration of 10^7 cells/ml. Plates were incubated at 37° C. and analysed after 1 and 2 days. Each experiment was repeated. […] The MIC's for propane-1,2-diol, pentane-1,5-diol, 2-methylpentane-2,4-diol and the combination of these 3 diols are shown in the table 1.
Example 3 was performed as example 1.

M. sympodialis CBS 7222 = assay: Test for bacteriostatic effect (MIC) in agar medium, M. sympodialis; conditions: 10^7 cells/ml, DST agar, 37° C., analysed after 1 and 2 days; combinations: % of each diol
Method: as §1, with “Sahigrenska” left out, “7966 Test for bacteriostatic effect (MIC=minimal inhitory concentration). […] Plates were incubated at 37° C. and analysed after 1 and 2 days. Each experiment was repeated.” for “7966”

M. globosa CBS 7966 = assay: Test for bacteriostatic effect (MIC) in agar medium, M. globosa; conditions: 10^7 cells/ml, DST agar, 37° C., analysed after 1 and 2 days; combinations: % of each diol
Method: as §1, with “Sahigrenska” left out, “7966 Test for bacteriostatic effect (MIC=minimal inhitory concentration). […] Plates were incubated at 37° C. and analysed after 1 and 2 days. Each experiment was repeated.” for “7966”

Structure (SMILES): CC(O)CO (stereo not drawn) [Propane-1,2-diol]
- MIC S. aureaus 10^3 [1]: >12%
- MIC S. aureaus 10^5 [1]: >12%
- MIC C. albicans 10^6 (Candida albicans H 29): 9%
- MIC M. sympodialis (M. sympodialis CBS 7222): 10%
- MIC M. globosa (M. globosa CBS 7966): 10%

Structure (SMILES): OCCCCCO [Pentane-1,5-diol]
- MIC S. aureaus 10^3 [1]: 12%
- MIC S. aureaus 10^5 [1]: 12%
- concentration that completely inhibited the growth of S. aureus [1]: 12%
- MIC C. albicans 10^6 (Candida albicans H 29): 4%
- MIC M. sympodialis (M. sympodialis CBS 7222): 3%
- MIC M. globosa (M. globosa CBS 7966): 3%

Structure (SMILES): CC(O)CCO (stereo not drawn) [Butane-1,3-diol]
- MIC S. aureaus 10^3 [1]: >12%
- MIC S. aureaus 10^5 [1]: >12%
- MIC C. albicans 10^6 (Candida albicans H 29): 8%
- MIC M. sympodialis (M. sympodialis CBS 7222): 10%
- MIC M. globosa (M. globosa CBS 7966): 10%

Structure (SMILES): CCO [Ethanol]
- MIC S. aureaus 10^3 [1]: >12%
- MIC S. aureaus 10^5 [1]: >12%
- MIC C. albicans 10^6 (Candida albicans H 29): 8%
- MIC M. sympodialis (M. sympodialis CBS 7222): 10%
- MIC M. globosa (M. globosa CBS 7966): 10%

Structure (SMILES): CC(O)CC(C)(C)O (stereo not drawn) [2-Methyl pentane-2,4-diol]
- MIC S. aureaus 10^3 [1]: 12%
- MIC S. aureaus 10^5 [1]: 12%
- concentration that completely inhibited the growth of S. aureus [1]: 12%
- MIC C. albicans 10^6 (Candida albicans H 29): 4%
- MIC M. sympodialis (M. sympodialis CBS 7222): 3%
- MIC M. globosa (M. globosa CBS 7966): 3%
